Values joined by “and” are separate entries in the source; they are usually repeats but may differ in a detail not shown here. Identical values can stand only once. Like-named read-outs stand apart in the source and are kept apart here.
Legend:
[1] = system: SARS-CoV-2 VOC γ (BZ/2021); assay type: in vivo, ferret (Mustela putorius furo); conditions: in vivo, po, 10 mg/kg
[2] = system: SARS-CoV-2 VOC γ (BZ/2021); assay type: in vivo, ferret (Mustela putorius furo)
[3] = system: “DF2” primary HAE cells (diseased, asthma); conditions: 72 h
in vitro [4] = conditions: human, % cell viability, HEp-2, 33.333 µM, 72 h
in vitro [5] = conditions: African green monkey, % cell viability, 72 h
in vitro [6] = conditions: hamster, % cell viability, 72 h
in vitro [7] = conditions: human, CC50, “M2” HAE
in vitro [8] = conditions: male, human, % cell viability, M6 HAE, 0.046 µM
HEp-2 cells = assay: Cytotoxicity assay (PrestoBlue), HEp-2; conditions: for % cell viability: 72 h
HCT-8 cells = assay: Cytotoxicity assay (PrestoBlue), HCT-8; conditions: for % cell viability: 72 h
BHK-21 cells = assay: Cytotoxicity assay (PrestoBlue), BHK-21; conditions: 72 h
[9] = Cytotoxicity assay (PrestoBlue), “F3” HAE; conditions: human
“M2” primary HAE cells = assay: Cytotoxicity assay (PrestoBlue), “M2” HAE; conditions: 72 h; for % cell viability: M2 HAE
[10] = GS-441524 and metabolite concentrations in ferret lung tissue; conditions: single 30 mg/kg oral GS-621763, 24 h

Question: For `CC(C)C(=O)OCC1OC(C#N)(c2ccc3c(N)ncnn23)C(OC(=O)C(C)C)C1OC(=O)C(C)C` (centres unmarked) [GS-621763], which “shed virus burden and tissue titers” value [1] is on record?
Answer: Its value is “undetectable levels”.

Question: What about the “SARS-CoV-2 RNA copies in lungs of contacts (Fig 4G)” value ([2]; Contact - GS-621763) of the same compound?
Answer: Its value is “not detected”.

Question: And the “Nasal turbinate RNA, Mean Diff. GS-621763 vs. Contact - GS-621763” value ([2]; Fig 4e, […], 10 mg/kg b.i.d.)?
Answer: Its value is 0.9216.

Question: What about the “Nasal turbinate RNA, Mean Diff. GS-621763 vs. Contact - Vehicle” value ([2]; Fig 4e, […], 10 mg/kg b.i.d.) of the same compound?
Answer: Its value is -3.233.

Question: And the “Nasal turbinate RNA, group mean of Contact - GS-621763 (Transform of Brazil - Nasal Turbinate RNA)” value ([2]; Fig 4e, […], contacts of GS-621763-treated source animals)?
Answer: Its value is 4.287.

Question: What about the “Turbinate titers, Mean Diff. GS-621763 vs. Contact - GS-621763” value ([2]; Fig 4d, […], 10 mg/kg b.i.d.) of the same compound?
Answer: The value was 0.

Question: And the “Turbinate titers, Mean Diff. GS-621763 vs. Contact - Vehicle” value ([2]; Fig 4d, […], 10 mg/kg b.i.d.)?
Answer: The value was -3.824.

Question: And the “Turbinate titers, group mean of Contact - GS-621763 (Transform of Brazil - Turbinate Titers)” value ([2]; Fig 4d, […], contacts of GS-621763-treated source animals)?
Answer: The value was 0.9542.

Question: And the “Infectious virus titer in nasal lavage of contacts (Fig 4B)” value ([2]; in vivo)?
Answer: Its value is 5 pfu.

Question: What about the “Nasal turbinate RNA, Mean Diff. Contact - Vehicle vs. Contact - GS-621763” value ([2]; in vivo) of the same compound?
Answer: Its value is 4.155.

Question: What about the “Nasal turbinate RNA, Mean Diff. Vehicle vs. Contact - GS-621763” value ([2]; in vivo) of the same compound?
Answer: Its value is 4.881.

Question: And the “Turbinate titers, Mean Diff. Contact - Vehicle vs. Contact - GS-621763” value ([2]; in vivo)?
Answer: Its value is 3.824.

Question: And the “Turbinate titers, Mean Diff. Vehicle vs. Contact - GS-621763” value ([2]; in vivo)?
Answer: Its value is 3.511.

Question: What about the “viral RNA in nasal turbinates of contact animals of treated source ferrets” value ([2]; in vivo) of the same compound?
Answer: Its value is < 10^5 copies/g nasal turbinate.

Question: What about the “virus transmission to untreated direct-contact animals” value ([2]; in vivo) of the same compound?
Answer: Its value is “completely blocked virus transmission”.

Question: What about the “% cell viability” value ([3]; DF2 HAE, 1.235 µM) of the same compound?
Answer: Its value is 106%.

Question: And the “% cell viability” value ([3]; DF2 HAE, 3.704 µM)?
Answer: Its value is 113%.

Question: What about the “% cell viability” value ([3]; DF2 HAE, 33.333 µM) of the same compound?
Answer: The value was 114%.

Question: What about the “% cell viability” value ([3]; human, 100 µM) of the same compound?
Answer: The value was 5%.

Question: What about the viability at 72 h, 33.333 µM (in vitro [4]) of the same compound?
Answer: Its viability at 72 h, 33.333 µM is 112%.

Question: And the viability at 72 h, 1.235 µM (in vitro [5]; VeroE6, 1.235 µM)?
Answer: The viability at 72 h, 1.235 µM was 87%.

Question: What about the viability at 72 h, 3.704 µM (in vitro [5]; VeroE6, 3.704 µM) of the same compound?
Answer: Its viability at 72 h, 3.704 µM is 87%.

Question: And the viability at 72 h, 33.333 µM (in vitro [5]; VeroE6, 33.333 µM)?
Answer: The viability at 72 h, 33.333 µM was 101%.

Question: And the viability at 72 h, 0.046 µM (in vitro [6]; BHK-21, 0.046 µM)?
Answer: The viability at 72 h, 0.046 µM was 89%.

Question: And the viability at 72 h, 1.235 µM (in vitro [6]; BHK-21, 1.235 µM)?
Answer: Its viability at 72 h, 1.235 µM is 89%.

Question: And the viability at 72 h, 33.333 µM (in vitro [6]; BHK-21, 33.333 µM)?
Answer: The viability at 72 h, 33.333 µM was 103%.

Question: What about the CC50 at 72 h (in vitro [7]) of the same compound?
Answer: Its CC50 at 72 h is 39.7 µM.

Question: What about the viability at 72 h, 0.046 µM (in vitro [8]) of the same compound?
Answer: The viability at 72 h, 0.046 µM was 92%.

Question: What about the “% cell viability” value (HEp-2 cells; HEp-2, 0.046 µM, 0.046 µM) of the same compound?
Answer: Its value is 67% and 49%.

Question: And the “% cell viability” value (HEp-2 cells; HEp-2, 3.704 µM, 3.704 µM)?
Answer: The value was 107% and 97%.

Question: And the CC50 (HEp-2 cells; HEp-2, 72 h)?
Answer: The CC50 was 79.4 µM.

Question: And the “% cell viability” value (HCT-8 cells; HCT-8, 0.046 µM, 0.046 µM)?
Answer: The value was 75% and 72%.

Question: What about the “% cell viability” value (HCT-8 cells; HCT-8, 1.235 µM, 1.235 µM) of the same compound?
Answer: Its value is 103%.

Question: And the “% cell viability” value (HCT-8 cells; HCT-8, 33.333 µM, 33.333 µM)?
Answer: The value was 96%.

Question: What about the “% cell viability” value (HCT-8 cells; HCT-8, 100 µM, 100 µM) of the same compound?
Answer: Its value is 1%.

Question: What about the CC50 (HCT-8 cells; HCT-8, 72 h) of the same compound?
Answer: The CC50 was 74.6 µM.

Question: And the “% cell viability” value (BHK-21 cells; BHK-21, 0.046 µM, 0.046 µM)?
Answer: Its value is 79%.

Question: And the “% cell viability” value (BHK-21 cells; BHK-21, 1.235 µM, 1.235 µM)?
Answer: The value was 92%.

Question: And the “% cell viability” value (BHK-21 cells; BHK-21, 3.704 µM, 3.704 µM)?
Answer: Its value is 96% and 93%.

Question: And the “% cell viability” value (BHK-21 cells; BHK-21, 33.333 µM, 33.333 µM)?
Answer: Its value is 95%.

Question: What about the “% cell viability” value (BHK-21 cells; BHK-21, 100 µM, 100 µM) of the same compound?
Answer: Its value is 84%.

Question: And the viability at 72 h, 1.235 µM ([9]; female, % cell viability, F3 HAE, 1.235 µM)?
Answer: The viability at 72 h, 1.235 µM was 121%.

Question: What about the viability at 72 h, 3.704 µM ([9]; female, % cell viability, F3 HAE, 3.704 µM) of the same compound?
Answer: Its viability at 72 h, 3.704 µM is 111%.

Question: And the viability at 72 h, 33.333 µM ([9]; female, % cell viability, F3 HAE, 33.333 µM)?
Answer: Its viability at 72 h, 33.333 µM is 81%.

Question: What about the viability at 72 h, 0.046 µM ([9]; female, “F3” primary human airway epithelial (HAE) cells, % cell viability, F3 HAE, 0.046 µM) of the same compound?
Answer: Its viability at 72 h, 0.046 µM is 83%.

Question: And the viability at 72 h, 100 µM ([9]; % cell viability, F3 HAE, 100 µM)?
Answer: Its viability at 72 h, 100 µM is 1%.

Question: And the CC50 at 72 h ([9]; CC50, “F3” HAE)?
Answer: Its CC50 at 72 h is 43.8 µM.

Question: What about the “% cell viability” value (“M2” primary HAE cells; 0.046 µM) of the same compound?
Answer: The value was 88% and 92%.

Question: What about the “% cell viability” value (“M2” primary HAE cells; 1.235 µM) of the same compound?
Answer: The value was 112%.

Question: What about the “% cell viability” value (“M2” primary HAE cells; 3.704 µM) of the same compound?
Answer: Its value is 115%.

Question: And the “% cell viability” value (“M2” primary HAE cells; 33.333 µM)?
Answer: Its value is 86% and 83%.

Question: What about the CC50 (“M2” primary HAE cells; “M2” HAE) of the same compound?
Answer: The CC50 was 39.7 µM.

Question: And the “GS-443902 levels in respiratory tissues trailing those of intravenous 10 mg/kg remdesivir” value [10]?
Answer: The value was “approximately fourfold”.

Reference: publication PMC8571282 (Nature Communications, 2021)
